Data from patent US10759795B2, “Aza-A-ring indenoisoquinoline topoisomerase I poisons” (Purdue Research Foundation, priority 2016, dated 2020).
Values joined by “and” are separate entries in the source; they are usually repeats but may differ in a detail not shown here. Identical values can stand only once. Counter-ions that a name gives are not always drawn. Like-named read-outs stand apart in the source and are kept apart here.

Columns and labels:
Top1 [1] = target: T1, Top1 (Homo sapiens, UniProt P11387); conditions: background statement; cited from earlier work
T1 sequence (P11387 1-765): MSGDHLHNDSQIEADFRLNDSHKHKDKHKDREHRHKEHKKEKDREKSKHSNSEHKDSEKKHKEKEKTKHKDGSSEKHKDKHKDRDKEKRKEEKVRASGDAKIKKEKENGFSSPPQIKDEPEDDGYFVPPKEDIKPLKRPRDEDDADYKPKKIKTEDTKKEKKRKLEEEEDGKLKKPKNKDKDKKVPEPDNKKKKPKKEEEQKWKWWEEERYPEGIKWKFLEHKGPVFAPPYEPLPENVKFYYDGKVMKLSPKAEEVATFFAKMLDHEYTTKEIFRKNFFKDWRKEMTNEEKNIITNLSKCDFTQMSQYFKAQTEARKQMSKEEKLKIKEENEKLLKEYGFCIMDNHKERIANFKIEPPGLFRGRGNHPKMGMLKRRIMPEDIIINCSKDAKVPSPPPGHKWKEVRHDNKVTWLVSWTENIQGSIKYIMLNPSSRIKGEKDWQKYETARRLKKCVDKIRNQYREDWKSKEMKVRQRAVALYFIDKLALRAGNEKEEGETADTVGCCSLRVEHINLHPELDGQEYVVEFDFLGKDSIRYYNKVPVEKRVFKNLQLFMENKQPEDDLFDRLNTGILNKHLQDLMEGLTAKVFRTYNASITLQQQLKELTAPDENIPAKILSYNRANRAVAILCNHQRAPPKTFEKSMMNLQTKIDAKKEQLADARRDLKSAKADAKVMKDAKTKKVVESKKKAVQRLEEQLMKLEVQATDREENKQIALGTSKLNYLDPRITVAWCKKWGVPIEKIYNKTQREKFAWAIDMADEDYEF

[2] = system: 60 human cancer cell lines; experiment: NCI-60 single-dose cytotoxicity assay; format: cell-based; conditions: mean-graph midpoint of percent growth of 60 human cancer cell lines, 10 μM drug, 48 h, relative to no-drug control and time zero
Method: (§1) The new indenoisoquinolines were evaluated for cancer cell growth inhibitory activities. The National Cancer Institute's NCI-60 cytotoxicity assay measures the ability of test agents to inhibit the growth of approximately 60 different cancer cell lines. In the initial single-dose assay, cells are treated with a 10 μM dose of test agent. The growth of treated cells versus untreated cells is then compared. If a test agent induces a sufficiently low mean growth percent, it is promoted to five-dose testing to determine a mean graph midpoint (MGM) GI50 value. In five-dose testing, cells are treated with test agent concentrations ranging from 10^−8 to 10^−4 M. The concentration required to achieve 50% growth inhibition in a particular cell line is calculated. In situations in which this value is greater than 100 μM or less than 0.01 μM, it is recorded as 100 μM and 0.01 μM, respectively. The values for each of the tested cell lines are averaged to obtain a mean graph midpoint (MGM) GI50 value. MGM GI50 values are often, but not always, determined from two separate rounds (Table 1).

Melanoma UACC-62 = experiment: NCI-60 five-dose cytotoxicity assay, UACC-62; conditions: Homo sapiens, UACC-62, read-out: Cytotoxicity GI50, Melanoma UACC-62
Method: as §1

recombinant human TDP2 = target: T2, recombinant human TDP2 (Homo sapiens, UniProt O95551); experiment: Recombinant TDP2 assay; format: biochemical; conditions: recombinant human TDP2, gel-based; read-out: TDP2: IC50 values for the inhibition of TDP2
T2 sequence (O95551 1-362): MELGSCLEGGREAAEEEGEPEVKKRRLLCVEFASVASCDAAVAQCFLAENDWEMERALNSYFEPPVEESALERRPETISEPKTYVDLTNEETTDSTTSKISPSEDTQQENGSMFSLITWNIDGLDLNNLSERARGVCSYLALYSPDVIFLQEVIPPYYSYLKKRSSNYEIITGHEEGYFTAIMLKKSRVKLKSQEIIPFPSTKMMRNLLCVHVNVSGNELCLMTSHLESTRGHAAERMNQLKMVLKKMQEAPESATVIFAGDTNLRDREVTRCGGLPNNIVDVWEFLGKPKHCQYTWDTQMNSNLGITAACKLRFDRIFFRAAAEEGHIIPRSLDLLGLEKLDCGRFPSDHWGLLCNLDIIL
Description: Reactions were terminated and treated similarly to recombinant TDP1 reactions.
TDP2, as opposed to TDP1, cleaves the phosphotyrosyl linkage in 5′-phosphotyrosyl-DNA oligonucleotides.

Top1 [3] = target: T1, Top1; experiment: Top1-mediated DNA cleavage assay; format: biochemical; conditions: score based on the activity of 1 μM 1 (camptothecin); tested at 0.1, 1, 10, 100 μM
Method: Approximately 2 nM radiolabeled DNA substrate was incubated with recombinant Top in 20 μL of reaction buffer [10 mM Tris-HCl (pH 7.5), 50 mM KCl, 5 mM MgCl2, 0.1 mM EDTA, and 15 μg/mL BSA] at 25° C. for 20 min in the presence of various concentrations of test compounds. […] Aliquots of each reaction mixture were subjected to 20% denaturing PAGE.
The Top1-mediated DNA cleavage assay was used to measure Top1 inhibitory activity. This assay measures the ability of the compound to stabilize DNA cleavage in a 3′-[^32P]-labeled DNA substrate via Top1 poisoning.

Colon, HCT-116 = experiment: NCI-60 five-dose cytotoxicity assay, HCT-116; conditions: Homo sapiens, HCT-116, read-out: Cytotoxicity GI50, Colon, HCT-116
Method: as §1

Breast, MCF7 = experiment: NCI-60 five-dose cytotoxicity assay, MCF7; conditions: Homo sapiens, MCF7, read-out: Cytotoxicity GI50, Breast, MCF7
Method: as §1

recombinant TDP1 = recombinant TDP1 (Homo sapiens, UniProt Q9NUW8); experiment: Recombinant TDP1 assay; format: biochemical; conditions: recombinant TDP1, gel-based; read-out: TDP1: IC50 values for the inhibition of TDP1
Method: A 5′-[^32P]-labeled single-stranded DNA oligonucleotide containing a 3′-phosphotyrosine (N14Y) was incubated at 1 nM with 10 pM recombinant TDP1 in the absence or presence of inhibitor for 15 min at room temperature in the LMP1 assay buffer containing 50 mM Tris HCl, pH 7.5, 80 mM KCl, 2 mM EDTA, 1 mM DTT, 40 μg/mL BSA, and 0.01% Tween-20^18. […] Gels were dried and exposed to a PhosphorImager screen (GE Healthcare). Gel images were scanned using a Typhoon 8600 (GE Healthcare), and densitometry analyses were performed using ImageQuant software (GE Healthcare).
TDP1 is involved in the repair of DNA damage that results from the action of Top1 poisons, which induce the formation of DNA-protein adducts that include a 3′-phosphotyrosyl linkage. The TDP1 inhibition assay assesses a test agent's ability to inhibit the enzyme-induced cleavage of a 5′-^32P, 3′-phosphotyrosyl-DNA oligonucleotide, called N14Y. Cleavage of the phosphodiester bond between the 3′-phosphate and tyrosine releases […] from the DNA oligonucleotide. The enzyme-processed DNA oligonucleotide lacking its 3′-phosphotyrosyl moiety is designated N14P. A schematic representation of the assay and a representative gel are shown in FIG. 2, and the TDP1 screening results are listed in Table 1.

[4] = system: approximately 60 different cancer cell lines; experiment: NCI-60 five-dose cytotoxicity assay, mean graph midpoint; format: cell-based; conditions: Homo sapiens, read-out: MGM: mean graph midpoint of growth inhibition (GI50)
Method: as §1

Prostate, DU-145 = experiment: NCI-60 five-dose cytotoxicity assay, DU-145; conditions: Homo sapiens, DU-145, read-out: Cytotoxicity GI50, Prostate, DU-145
Method: as §1

Renal, SN12C = experiment: NCI-60 five-dose cytotoxicity assay, SN12C; conditions: Homo sapiens, read-out: Cytotoxicity GI50, Renal, SN12C
Method: as §1

Ovarian, OVCAR-3 = experiment: NCI-60 five-dose cytotoxicity assay, OVCAR-3; conditions: Homo sapiens, OVCAR-3, read-out: Cytotoxicity GI50, Ovarian, OVCAR-3
Method: as §1

Lung, HOP-62 = experiment: NCI-60 five-dose cytotoxicity assay, HOP-62; conditions: Homo sapiens, HOP-62, read-out: Cytotoxicity GI50, Lung, HOP-62
Method: as §1

CNS, SF-539 = experiment: NCI-60 five-dose cytotoxicity assay, SF-539; conditions: Homo sapiens, CNSSF-539, read-out: Cytotoxicity GI50, CNS, SF-539
Method: as §1

[5] = 5 dose assay, 10^−8-10^−4 M, average over tested cell lines

Chain of recombinant TDP1 (Q9NUW8 whole entry, species assumed): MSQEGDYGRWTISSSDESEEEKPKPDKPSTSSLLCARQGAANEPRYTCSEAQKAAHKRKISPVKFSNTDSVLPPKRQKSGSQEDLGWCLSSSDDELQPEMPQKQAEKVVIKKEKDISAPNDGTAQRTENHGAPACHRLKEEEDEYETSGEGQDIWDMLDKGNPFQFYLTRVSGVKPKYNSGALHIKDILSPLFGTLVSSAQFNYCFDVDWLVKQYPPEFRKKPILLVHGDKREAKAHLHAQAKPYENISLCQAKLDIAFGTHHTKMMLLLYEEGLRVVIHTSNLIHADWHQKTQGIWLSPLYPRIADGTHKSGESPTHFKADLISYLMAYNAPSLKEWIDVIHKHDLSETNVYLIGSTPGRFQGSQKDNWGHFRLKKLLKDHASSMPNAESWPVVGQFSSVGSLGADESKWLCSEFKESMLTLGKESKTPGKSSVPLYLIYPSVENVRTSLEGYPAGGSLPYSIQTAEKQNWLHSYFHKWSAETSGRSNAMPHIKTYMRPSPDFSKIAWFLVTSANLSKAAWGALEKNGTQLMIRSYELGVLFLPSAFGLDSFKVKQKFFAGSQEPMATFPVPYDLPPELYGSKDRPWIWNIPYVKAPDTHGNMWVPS

Row | Structure (SMILES) | Top1 inhibitory activity (Top1 [1]) | activity at 10 µM [2] [%] | GI50 (Melanoma UACC-62) [nM] | IC50 (recombinant human TDP2) [nM] | Top 1: compound-induced DNA cleavage due to Top1 poisoning (Top1 [3]) | GI50 (Colon, HCT-116) [nM] | GI50 (Breast, MCF7) [nM] | IC50 (recombinant TDP1) | GI50 [4, 5] [nM] | GI50 (Prostate, DU-145) [nM] | GI50 (Renal, SN12C) [nM] | melting point [°C] | GI50 (Ovarian, OVCAR-3) [nM] | GI50 (Lung, HOP-62) [nM] | GI50 [4] [nM] | GI50 (CNS, SF-539) [nM] | Mean Growth % [2] [%]
1 | O=C1c2ccccc2-c2c1c1ccccc1c(=O)n2CCCNCCCNCCCn1c2c(c3ccccc3c1=O)C(=O)c1ccccc1-2 [Compound 5] | potent | – | – | – | – | – | – | – | – | – | – | – | – | – | – | – | –
2 | CN(C)CCCn1c2c(c3cccnc3c1=O)C(=O)c1ccccc1-2 [Compound 47, 4-Aza-5,6-dihydro-6-(3-(dimethylamino)propyl)-5,11-dioxo-indeno[1,2-c]isoquinoline] | – | 5.45 | 1290 | > 111000 | +++ (+++, between 75 and 95% activity) | 437 | 363 | ~111000 nM | 1260 | 1910 | 1120 | 183 to 184 | 2400 | – | – | – | –
3 | NCCCn1c2c(c3cccnc3c1=O)C(=O)c1ccccc1-2 [Compound 60, 6-(3-Aminopropyl)-4-aza-5,6-dihydro-5,11-dioxo-indeno[1,2-c]isoquinoline Dihydrochloride] | – | 12.2 | 1350 | > 111000 | ++ (++, between 50 and 75% activity) | 537 | 417 | 60000 nM and > 111000 nM | 1510 | 1910 | 1120 | – | 2290 | 1450 | – | – | –
4 | CC[C@@]1(O)C(=O)OCc2c1cc1n(c2=O)Cc2cc3ccccc3nc2-1 [Compound 1, camptothecin, reference compound] | – | – | 10 | – | – | 30 | 10 | – | – | 10 | 20 | – | 220 | 10 | 40.5 | 10 | –
5 | CN(C)CCCn1c2c(c3cnccc3c1=O)C(=O)c1ccccc1-2 [Compound 45, 2-Aza-5,6-dihydro-6-(3-(dimethylamino)propyl)-5,11-dioxo-indeno[1,2-c]isoquinoline] | – | -8.83 | 309 | 37000 | ++ (++, between 50 and 75% activity) | 245 | 245 | 63000 nM | 437 | 490 | 288 | 177 to 178 | 1100 | 398 | – | – | –
6 | O=C1c2ccccc2-c2c1c1ncccc1c(=O)n2CCCn1ccnc1 [Compound 40, 1-Aza-5,6-dihydro-6-(3-(1H-imidazol-1-yl)propyl)-5,11-dioxo-indeno[1,2-c]isoquinoline] | – | – | – | > 111000 | ++ (++, between 50 and 75% activity) | – | – | > 111000 nM | – | – | – | 242 to 243 | – | – | – | – | 83.6
7 | O=C1c2ccccc2-c2c1c1cnccc1c(=O)n2CCCn1ccnc1 [Compound 41, 2-Aza-5,6-dihydro-6-(3-(1H-imidazol-1-yl)propyl)-5,11-dioxo-indeno[1,2-c]isoquinoline] | – | – | – | > 111000 | ++ (++, between 50 and 75% activity) | – | – | > 111000 nM | – | – | – | 274 to 275 | – | – | – | – | 67.8
8 | O=C1c2ccccc2-c2c1c1cccnc1c(=O)n2CCCn1ccnc1 [Compound 43, 4-Aza-5,6-dihydro-6-(3-(1H-imidazol-1-yl)propyl)-5,11-dioxo-indeno[1,2-c]isoquinoline] | – | – | – | > 111000 | +++ (+++, between 75 and 95% activity) | – | – | > 111000 nM | – | – | – | 251 to 252 | – | – | – | – | 49.6
9 | CN(C)CCCn1c2c(c3ccncc3c1=O)C(=O)c1ccccc1-2 [Compound 46, 3-Aza-5,6-dihydro-6-(3-(dimethylamino)propyl)-5,11-dioxo-11H-indeno[1,2-c]isoquinoline] | – | – | – | – | ++ (++, between 50 and 75% activity) | 380 | – | – | 977 | – | – | 168 to 170 | 2000 | – | – | – | –
10 | CN(C)CCCn1c2c(c3ncccc3c1=O)C(=O)c1ccccc1-2 [Compound 44, 1-Aza-5,6-dihydro-6-(3-(dimethylamino)propyl)-5,11-dioxo-indeno[1,2-c]isoquinoline] | – | – | – | > 111000 | ++ (++, between 50 and 75% activity) | – | – | 90000 nM | – | – | – | 187 to 188 | – | – | – | – | 44.4
